Our source for the DC50 values is patent US20240158418A1 (C4 Therapeutics, Inc., priority 2021, published 2024).

One assay addresses T1, EGFR L858R-T790M (Homo sapiens, UniProt P00533, L858R/T790M).
T1 construct: NCI-H1975 (harboring EGFR heterozygous L858R-T790M mutations); host or cells: NCI-H1975
Description: EGFR degradation, Total EGFR (L858R-specific) HTRF, NCI-H1975. It counts as cell-based. The following applies: Table 9B; NCI-H1975 cells, 6 hours, Total EGFR HTRF; read-out: H1975 EGFR DC50. An outline of the steps:
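FRET signal from HTRF kits measured phospho-EGFR at pY1068 or total EGFR after 6 h treatment at 37 °C. Compounds ran as 11-point half-log dilutions from 10 μM in duplicate, in cells in phenol red-free RPMI with 10% FBS. Concentrations giving 50% inhibition or degradation were reported as IC50 or DC50.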
(In general: Time-resolved FRET reads energy transfer from a long-lived donor to a nearby acceptor.)

Another assay has as its target EGFR L858R (Homo sapiens, UniProt P00533, L858R). Description: EGFR degradation, Total EGFR (L858R-specific) HTRF, NCI-H3255. It counts as cell-based. The following applies: Table 9B; NCI-H3255 cells, 6 hours, Total EGFR HTRF; read-out: H3255 EGFR DC50. More on the design: NCI-H3255 (harboring EGFR heterozygous L858R mutation); host or cells: NCI-H3255. An excerpt:
NCI-H1975 (harboring EGFR heterozygous L858R-T790M mutations) and NCI-H3255 (harboring EGFR heterozygous L858R mutation) were purchased from ATCC and NCI, respectively. NCI-H1975+CS (harboring EGFR heterozygous L858R-T790M-C797S mutations) was generated using CRISPR technology to introduce the additional C797S mutation by Horizon Discovery. A431 (harboring EGFR wildtype) was purchased from ATCC. RPMI 1640 no-phenol red medium and fetal bovine serum (FBS) were purchased from Gibco (Grand Island, NY, USA). Cell culture flasks and 384-well microplates were acquired from VWR (Radnor, PA, USA). Phosphorylated (pY1068) EGFR and Total EGFR (using L858R-specific detection antibody and pan-EGFR antibody for EGFR mutant cell lines and EGFR wild-type cell lines, respectively) HTRF assay kits were purchased from Cisbio (Bedford, MA, USA).
Degradation of EGFR protein containing L858R mutation or wild-type was determined based on quantification of FRET signal using a Total EGFR (L858R-specific or pan-EGFR detecting) HTRF assay kit. Phospho-EGFR (pEGFR) inhibition was determined based on quantification of FRET signal using a pY1068 EGFR HTRF assay kit. In separate assay plates, test compounds were added to the 384-well plate from a top concentration of 10 μM with 11 points, half log titration in duplicates. For each assay, 12.5 uL of cells suspended in assay media (RPMI 1640 no-phenol red medium+10% FBS) at cell densities indicated for each cell line in Table 8 below were dispensed using a multi-channel pipette to 384-well low volume white HTRF microplates containing a duplicate concentration range of test compounds and DMSO controls. The plates were kept at 37° C. with 5% CO2 for 6 hours and then incubated with either phospho EGFR or Total EGFR HTRF detection antibodies according to the cell line and EGFR mutant being assayed. Cells treated in the absence of the test compound were the negative control. Positive control was set by wells containing all reagents but no cells. FRET signal was acquired on EnVision™ Multilabel Reader (PerkinElmer, Santa Clara, CA, USA). Compound concentration that achieves 50% degradation and inhibition was reported as DC50 and IC50, respectively.

Structures are written as SMILES.

EGFR L858R, sequence (P00533 25-1210 L858R): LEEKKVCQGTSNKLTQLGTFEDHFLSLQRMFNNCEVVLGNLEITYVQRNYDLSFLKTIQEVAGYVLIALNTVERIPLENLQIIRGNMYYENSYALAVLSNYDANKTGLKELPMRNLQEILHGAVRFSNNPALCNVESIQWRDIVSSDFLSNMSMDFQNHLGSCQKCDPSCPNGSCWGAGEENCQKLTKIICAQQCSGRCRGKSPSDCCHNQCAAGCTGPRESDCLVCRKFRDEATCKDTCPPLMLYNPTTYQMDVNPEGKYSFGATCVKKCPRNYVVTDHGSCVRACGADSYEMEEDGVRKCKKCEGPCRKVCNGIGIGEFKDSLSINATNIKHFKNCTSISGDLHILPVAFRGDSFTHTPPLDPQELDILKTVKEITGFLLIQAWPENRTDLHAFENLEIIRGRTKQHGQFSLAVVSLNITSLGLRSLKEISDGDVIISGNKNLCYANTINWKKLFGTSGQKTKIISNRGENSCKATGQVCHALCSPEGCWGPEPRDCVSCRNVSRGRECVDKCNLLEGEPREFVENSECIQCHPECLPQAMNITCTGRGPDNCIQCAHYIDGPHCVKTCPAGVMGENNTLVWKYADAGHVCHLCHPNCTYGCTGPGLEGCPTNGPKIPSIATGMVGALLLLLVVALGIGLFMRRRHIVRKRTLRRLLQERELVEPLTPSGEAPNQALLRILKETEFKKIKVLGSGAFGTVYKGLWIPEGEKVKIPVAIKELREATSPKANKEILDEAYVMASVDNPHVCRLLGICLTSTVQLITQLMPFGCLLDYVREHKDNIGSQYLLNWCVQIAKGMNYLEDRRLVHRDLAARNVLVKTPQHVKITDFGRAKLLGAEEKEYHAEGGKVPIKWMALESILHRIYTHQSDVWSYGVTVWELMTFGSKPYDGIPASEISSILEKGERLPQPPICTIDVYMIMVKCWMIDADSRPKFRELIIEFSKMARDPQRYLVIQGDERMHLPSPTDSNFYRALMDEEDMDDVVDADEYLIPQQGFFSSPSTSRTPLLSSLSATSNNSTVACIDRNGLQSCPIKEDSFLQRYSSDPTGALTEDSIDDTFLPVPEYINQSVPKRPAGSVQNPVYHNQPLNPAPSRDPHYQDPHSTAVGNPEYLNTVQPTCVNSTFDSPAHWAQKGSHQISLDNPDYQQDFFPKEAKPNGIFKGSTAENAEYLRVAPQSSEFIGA
T1 sequence (P00533 25-1210 T790M/L858R): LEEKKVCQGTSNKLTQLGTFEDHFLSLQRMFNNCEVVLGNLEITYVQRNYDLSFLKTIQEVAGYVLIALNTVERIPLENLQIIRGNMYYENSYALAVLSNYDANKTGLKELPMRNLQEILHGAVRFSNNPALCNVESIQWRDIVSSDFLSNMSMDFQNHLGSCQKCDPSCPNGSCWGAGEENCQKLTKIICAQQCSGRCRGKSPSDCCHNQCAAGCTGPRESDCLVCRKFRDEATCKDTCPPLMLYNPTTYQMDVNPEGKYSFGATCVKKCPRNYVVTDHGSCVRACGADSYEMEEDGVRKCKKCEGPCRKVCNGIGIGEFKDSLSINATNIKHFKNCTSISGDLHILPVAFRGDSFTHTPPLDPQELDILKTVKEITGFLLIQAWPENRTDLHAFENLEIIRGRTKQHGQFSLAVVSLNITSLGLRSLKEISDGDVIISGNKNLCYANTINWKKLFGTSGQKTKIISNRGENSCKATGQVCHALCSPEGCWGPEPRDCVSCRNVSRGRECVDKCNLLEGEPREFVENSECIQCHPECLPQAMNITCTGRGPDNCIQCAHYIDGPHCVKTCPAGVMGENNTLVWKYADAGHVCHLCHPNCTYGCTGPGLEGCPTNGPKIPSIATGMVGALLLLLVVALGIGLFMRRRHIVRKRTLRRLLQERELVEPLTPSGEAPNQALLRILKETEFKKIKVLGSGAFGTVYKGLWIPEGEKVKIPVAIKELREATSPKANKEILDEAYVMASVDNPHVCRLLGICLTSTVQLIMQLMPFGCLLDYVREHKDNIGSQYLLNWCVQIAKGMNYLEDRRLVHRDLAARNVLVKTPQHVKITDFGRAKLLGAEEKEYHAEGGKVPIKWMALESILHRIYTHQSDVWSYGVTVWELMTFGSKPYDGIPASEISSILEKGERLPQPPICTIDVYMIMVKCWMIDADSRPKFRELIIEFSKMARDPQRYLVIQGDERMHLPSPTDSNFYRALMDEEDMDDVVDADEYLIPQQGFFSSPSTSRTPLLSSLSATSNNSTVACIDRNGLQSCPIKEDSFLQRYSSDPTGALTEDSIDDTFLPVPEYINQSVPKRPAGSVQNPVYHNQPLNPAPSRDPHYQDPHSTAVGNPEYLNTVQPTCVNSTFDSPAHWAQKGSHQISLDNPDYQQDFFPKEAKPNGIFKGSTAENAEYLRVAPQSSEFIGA

For `O=C1CCC(Nc2cc(F)c(N3CCC(O)(CC(=O)N4CC5(C4)CN(c4ccc(-c6cc(F)c7c(c6)C(=O)N(C(C(=O)Nc6nccs6)c6ncn8c6CCC8)C7)cc4)C5)CC3)c(F)c2)C(=O)N1` (stereo not drawn) [Compound 103, 2-(6,7-dihydro-5H-pyrrolo[1,2-c]imidazol-1-yl)-2-[6-[4-[2-[2-[1-[4-[(2,6-dioxo-3-piperidyl)-amino]-2,6-difluoro-phenyl]-4-hydroxy-4-piperidyl]acetyl]-2,6-diazaspiro[3.3]hept-an-6-yl]-phenyl]-4-fluoro-1-oxo-isoindolin-2-yl]-N-thiazol-2-yl-acetamide], the DC50 on EGFR L858R-T790M and on EGFR L858R was under 0.05 µM in each case.
On to `O=C1CCC(Nc2ccc(N3CCC(O)(CC(=O)N4CC5(C4)CN(c4ccc(-c6cc(F)c7c(c6)C(=O)N(C(C(=O)Nc6nccs6)c6ncn8c6CCC8)C7)cc4)C5)CC3)c(C(F)F)c2)C(=O)N1` (stereo not drawn) [Compound 104, 2-(6-(4-(6-(2-(1-(2-(difluoromethyl)-4-((2,6-dioxopiperidin-3-yl)amino)phenyl)-4-hydroxypiperidin-4-yl)acetyl)-2,6-diazaspiro[3.3]heptan-2-yl)phenyl)-4-fluoro-1-oxoisoindolin-2-yl)-2-(6,7-dihydro-5H-pyrrolo[1,2-c]imidazol-1-yl)-N-(thiazol-2-yl)acetamide], for which the half-maximal degradation concentration (DC50) at EGFR L858R-T790M and on EGFR L858R was under 0.05 µM throughout.
For the molecule `O=C1CC[C@@H](Nc2ccc(C3CCN(CC(=O)N4CCN(c5ccc(-c6cc(F)c7c(c6)C(=O)N(C(C(=O)Nc6nccs6)c6ncn8c6CCC8)C7)cc5)CC4)CC3)cc2)C(=O)N1` (stereo partly drawn) [Compound 175, 2-(6,7-dihydro-5H-pyrrolo[1,2-c]imidazol-1-yl)-2-[6-[4-[4-[2-[4-[4-[[(3R)-2,6-dioxo-3-piperidyl]amino]phenyl]-1-piperidyl]acetyl]piperazin-1-yl]phenyl]-4-fluoro-1-oxo-isoindolin-2-yl]-N-thiazol-2-yl-acetamide], the DC50 on EGFR L858R-T790M and on EGFR L858R was under 0.05 µM throughout.
For `O=C1CCC(Nc2ccc(C3CCC(CC(=O)N4CCN(c5ccc(-c6cc(F)c7c(c6)C(=O)N(C(C(=O)Nc6nccs6)c6ncn8c6CCC8)C7)cc5)CC4)CC3)cc2)C(=O)N1` (stereo not drawn) [Compound 177, 2-(6,7-dihydro-5H-pyrrolo[1,2-c]imidazol-1-yl)-2-(6-(4-(4-(2-(4-(4-((2,6-dioxopiperidin-3-yl)amino)phenyl)cyclohexyl)acetyl)piperazin-1-yl)phenyl)-4-fluoro-1-oxoisoindolin-2-yl)-N-(thiazol-2-yl)acetamide], the DC50 at EGFR L858R-T790M and at EGFR L858R was under 0.05 µM throughout.
As for `O=C1CCC(Nc2ccc(C3CCN(C(=O)CN4CCN(c5ccc(-c6cc(F)c7c(c6)C(=O)N(C(C(=O)Nc6nccs6)c6ncn8c6CCC8)C7)cc5)CC4)CC3)cc2)C(=O)N1` (stereo not drawn) [Compound 178, 2-(6,7-dihydro-5H-pyrrolo[1,2-c]imidazol-1-yl)-2-(6-(4-(4-(2-(4-(4-((2,6-dioxopiperidin-3-yl)amino)phenyl)piperidin-1-yl)-2-oxoethyl)piperazin-1-yl)phenyl)-4-fluoro-1-oxoisoindolin-2-yl)-N-(thiazol-2-yl)acetamide], the 50% degradation concentration (DC50) on EGFR L858R-T790M and at EGFR L858R was under 0.05 µM in each case.
As to `O=C1CCC(Nc2ccc(C3CCN(CC(=O)N4CCN(c5ccc(-c6cc(F)c7c(c6)C(=O)N(C(C(=O)Nc6nccs6)c6ncn8c6CCC8)C7)cc5)CC4)CC3)nc2)C(=O)N1` (stereo not drawn) [Compound 179, 2-(6,7-dihydro-5H-pyrrolo[1,2-c]imidazol-1-yl)-2-[6-[4-[4-[2-[4-[5-[(2,6-dioxo-3-piperidyl)amino]-2-pyridyl]-1-piperidyl]acetyl]piperazin-1-yl]phenyl]-4-fluoro-1-oxo-isoindolin-2-yl]-N-thiazol-2-yl-acetamide], the DC50 on EGFR L858R-T790M and at EGFR L858R was under 0.05 µM each time.

The DC50 is the midpoint of the concentration-degradation curve.
